{"source": "patent US20260297060A1", "about": "“COMPOUNDS FOR THE DEGRADATION OF MUTANT BRAF” (C4 THERAPEUTICS, INC., priority 2023, published 2026)", "molecular_target": "T1, human bile salt export pump (BSEP) efflux transporter (Homo sapiens, UniProt O95342)", "T1 construct": "purchased SOLVO Biotechnology Charles River Laboratories, Szeged, Hungary; host or cells: HEK293 (inside out membrane vesicles)", "T1 sequence (O95342 whole entry)": "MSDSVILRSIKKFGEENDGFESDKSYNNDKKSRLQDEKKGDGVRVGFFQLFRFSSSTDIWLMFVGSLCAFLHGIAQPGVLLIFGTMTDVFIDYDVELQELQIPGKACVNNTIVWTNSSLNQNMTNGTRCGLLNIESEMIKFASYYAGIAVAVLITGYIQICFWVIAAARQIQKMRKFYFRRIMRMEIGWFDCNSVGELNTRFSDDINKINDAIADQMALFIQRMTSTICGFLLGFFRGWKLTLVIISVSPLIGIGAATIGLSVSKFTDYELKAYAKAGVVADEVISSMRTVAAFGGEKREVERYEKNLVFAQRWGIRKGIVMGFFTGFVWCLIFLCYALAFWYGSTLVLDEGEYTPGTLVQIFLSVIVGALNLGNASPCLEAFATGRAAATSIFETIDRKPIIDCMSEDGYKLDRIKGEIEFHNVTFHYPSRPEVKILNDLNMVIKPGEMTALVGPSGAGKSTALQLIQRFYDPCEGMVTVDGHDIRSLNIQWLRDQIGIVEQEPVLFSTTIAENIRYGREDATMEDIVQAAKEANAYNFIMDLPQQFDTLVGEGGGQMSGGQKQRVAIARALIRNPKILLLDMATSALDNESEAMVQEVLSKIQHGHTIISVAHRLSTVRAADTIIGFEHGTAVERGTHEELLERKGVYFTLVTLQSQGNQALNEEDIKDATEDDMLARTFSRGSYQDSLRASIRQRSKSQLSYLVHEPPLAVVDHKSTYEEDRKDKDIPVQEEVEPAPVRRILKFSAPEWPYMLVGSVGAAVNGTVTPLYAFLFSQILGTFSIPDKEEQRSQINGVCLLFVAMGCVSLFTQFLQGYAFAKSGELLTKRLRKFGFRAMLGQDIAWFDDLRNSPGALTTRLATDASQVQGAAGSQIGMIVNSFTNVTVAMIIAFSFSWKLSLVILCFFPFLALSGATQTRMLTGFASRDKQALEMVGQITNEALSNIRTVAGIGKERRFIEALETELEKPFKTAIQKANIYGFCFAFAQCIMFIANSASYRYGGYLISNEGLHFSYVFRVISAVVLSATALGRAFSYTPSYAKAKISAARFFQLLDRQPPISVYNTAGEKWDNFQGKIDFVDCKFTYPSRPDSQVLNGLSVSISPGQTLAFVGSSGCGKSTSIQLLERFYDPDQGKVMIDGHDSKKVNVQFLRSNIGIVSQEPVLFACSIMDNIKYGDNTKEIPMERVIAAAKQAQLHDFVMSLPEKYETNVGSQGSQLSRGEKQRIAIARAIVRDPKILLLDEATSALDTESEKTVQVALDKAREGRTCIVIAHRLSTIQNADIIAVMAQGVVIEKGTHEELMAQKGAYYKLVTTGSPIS", "assay": "BSEP Vesicular Transport, one concentration inhibition assay", "format": "biochemical", "settings": "human BSEP (HEK293) vesicles, taurocholate 0.2 μM, 4 mM Mg-ATP, 2 replicates", "description": "The vesicular transport (VT) assays were performed using inside out membrane vesicles derived from HEK293 cells expressing the specified human bile salt export pump (BSEP) efflux transporter. The membrane vesicles were procured from SOLVO Biotechnology Charles River Laboratories, Szeged, Hungary.\nThe principle of the assay relies on measuring the accumulation of substrate into inside out vesicles containing the efflux transporter. By utilizing inside out vesicles, the ATP-dependent transport of substrate is directed into the vesicular lumen, where low permeability compounds are then essentially trapped.\nFor the 1 concentration inhibition assay, each compound was tested in the presence of ATP (active transport) in 2 replicates.\nThe solvent control (DMSO) was tested in the presence of ATP (active transport) and in the presence of AMP (background) in 8 replicates. […]\nThe samples were then be transferred to a filter plate and washed with 200 μL cold washing mix5-times to remove any free compounds or taurocholate probe substrate. The amount of taurocholate probe substrate inside the filtered vesicles were determined by liquid scintillation counting. […] The amount of taurocholate probe substrate inside the filtered vesicles were determined by liquid scintillation counting.", "data": [{"smiles": "CCN(C)S(=O)(=O)Nc1ccc(F)c(Oc2ccc3ncn([C@H]4COC5(CCN(C6CC(c7cc8c(cc7F)c(N7CCC(=O)NC7=O)nn8C)C6)CC5)C4)c(=O)c3c2)c1C#N", "note": "(single isomer, unassigned) [Compound 70]", "values": [{"measurement": "BSEP Inhibition SD Inhibition %", "result": 80, "unit": "%"}]}]}
